Active and inactive are the calls of the source. No cut-off for these calls is given here.

In data set [1] the test system is SH-SY5Y. As to the kind of experiment: Neuroprotective activity against oxygen glucose deprivation induced ischemic stroke model in human SH-SY5Y cells assessed as cell viability at 2 uM incubated for 24 hrs by CCK-8 assay. Particulars: read-out: Activity. Format: functional. For orientation: Tetrazolium dyes change colour on reduction, which living cells bring about.

For data set [2], the system named is SH-SY5Y. As to the kind of experiment: Neuroprotective activity against oxygen glucose deprivation induced ischemic stroke model in human SH-SY5Y cells assessed as cell viability at 20 uM incubated for 24 hrs by CCK-8 assay. Particulars: read-out: Activity. It counts as functional.
The nature of the next data set: in vivo. The conditions noted are these: C57BL/6, mouse, ip, 20 mg/kg.
For data set [3], the system named is Mus musculus. As to the kind of experiment: Neuroprotective activity against middle cerebral artery occlusion-induced brain infarction C57BL/6 mouse model assessed as decrease in neurological deficit score at 10 mg/kg, ip and measured after 24 hrs by animal behavioral study relative to control. It counts as functional.
Data set [4] concerns Cortical neurone. As to the kind of experiment: Cytotoxicity against primary C57BL/6J E14-17 mouse Cortical neuron assessed as decrease in cell viability upto 50 uM incubated for 24 hrs by CCK-8 assay. It counts as toxicity, cell-based.
A short description of data set [5]: Toxicity in middle cerebral artery occlusion-induced brain infarction C57BL/6 mouse model assessed as survival rate at 10 mg/kg, ip and measured after 24 hrs. Format: organism-based. The conditions noted are these: in vivo.
In data set [6] the test system is Cortical neurone. The data set is described as follows: Neuroprotective activity against oxygen glucose deprivation induced ischemic stroke model in primary C57BL/6J E14-17 mouse Cortical neurons assessed as increase in cell viability at 0.5 to 20 uM incubated for 24 hrs by CCK-8 assay. Format: functional, cell-based. The conditions noted are these: dose 0.5-20 µM.

Data set [7] deals with Mus musculus. As to the kind of experiment: Neuroprotective activity against middle cerebral artery occlusion-induced brain infarction C57BL/6 mouse model assessed as reduction in cerebral infarct volume at 20 mg/kg, ip and measured after 24 hrs by TTC staining based assay. It counts as functional, organism-based.
Data set [8] relates to Cortical neurone. The data set is described as follows: Cytotoxicity against primary C57BL/6J E14-17 mouse Cortical neuron assessed as decrease in cell viability at 1 uM incubated for 24 hrs by CCK-8 assay relative to control. Format: toxicity, cell-based.
The test system of data set [9] is Cortical neurone. As to the kind of experiment: Neuroprotective activity against oxygen glucose deprivation induced ischemic stroke model in primary C57BL/6J E14-17 mouse Cortical neurons assessed as increase in cell viability at 1 uM incubated for 24 hrs by CCK-8 assay (Rvb= 57.43 +/- 2.54 %). Format: functional.
In data set [10] the test system is Cortical neurone. As to the kind of experiment: Neuroprotective activity against oxygen glucose deprivation induced ischemic stroke model in primary C57BL/6J E14-17 mouse Cortical neurons assessed as increase in cell viability at 10 uM incubated for 24 hrs by CCK-8 assay (Rvb= 57.43 +/- 2.54 %). It counts as functional.
In data set [11] the test system is Cortical neurone. As to the kind of experiment: Cytotoxicity against primary C57BL/6J E14-17 mouse Cortical neuron assessed as decrease in cell viability at 10 uM incubated for 24 hrs by CCK-8 assay relative to control. Format: toxicity, cell-based.
Data set [12] deals with Cortical neurone. As to the kind of experiment: Cytotoxicity against primary C57BL/6J E14-17 mouse Cortical neuron assessed as decrease in cell viability at 0.1 to 20 uM incubated for 24 hrs by CCK-8 assay. It counts as toxicity, cell-based. The conditions noted are these: dose 0.1-20 µM.
In data set [13] the test system is Cortical neurone. The data set is described as follows: Neuroprotective activity against oxygen glucose deprivation induced ischemic stroke model in primary C57BL/6J E14-17 mouse Cortical neurons assessed as increase in cell viability at 0.1 to 20 uM incubated for 24 hrs by CCK-8 assay. It counts as functional, cell-based. Particulars: dose 0.1-20 µM.
Data set [14] concerns Cortical neurone. As to the kind of experiment: Cytotoxicity against primary C57BL/6J E14-17 mouse Cortical neuron assessed as decrease in cell viability at 10 to 20 uM incubated for 24 hrs by CCK-8 assay. Format: toxicity, cell-based. Particulars: dose 10-20 µM.
Data set [15] deals with Cortical neurone. As to the kind of experiment: Neuroprotective activity against oxygen glucose deprivation induced ischemic stroke model in primary C57BL/6J E14-17 mouse Cortical neurons assessed as increase in cell viability at 5 uM incubated for 24 hrs by CCK-8 assay (Rvb= 57.43 +/- 2.54 %). Format: functional.
Data set [16] concerns Cortical neurone. The data set is described as follows: Cytotoxicity against primary C57BL/6J E14-17 mouse Cortical neuron assessed as decrease in cell viability at 0.1 to 5 uM incubated for 24 hrs by CCK-8 assay. Format: toxicity, cell-based. The conditions noted are these: dose 0.1-5 µM.

Take `O=C(/C=C/c1ccc(O)c2c1[C@H](C(=O)O[C@H](Cc1ccc(O)c(O)c1)C(=O)O)[C@@H](c1ccc(O)c(O)c1)O2)O[C@H](Cc1ccc(O)c(O)c1)C(=O)O`: the viability at 2 µM in the data set with SH-SY5Y [1] turned out to be 73.4%. Moreover, the viability at 20 µM in the data set on SH-SY5Y [2] stood at 78.1%.
As a reminder, the mortality is the share of the test organisms that died. A high value points to fewer survivors. Consider `CCCCCCCCN(C)[C@H]1CC[C@@H](c2ccc(Cl)c(Cl)c2)c2ccccc21` [listing 1 of 2 here], for which, in the data set “in vivo”, the mortality at 24 h came out at 35.7%. The Activity with Mus musculus [3] is listed as 1.5; with Cortical neurone [4], “Non-Toxic”. Moreover, the survival at 24 h in data set [5] came out at 100%.
With `CCCCCCCCN(C)[C@H]1CC[C@@H](c2ccc(Cl)c(Cl)c2)c2ccccc21` [listing 2 of 2 here], the outcome with Cortical neurone [6] and in the data set with Mus musculus [7] was Active.
Take `COc1ccc(CN[C@@H]2CC[C@@H](c3ccc(Cl)c(Cl)c3)c3ccccc32)cc1OC` (relative stereo): the Activity was 99.79% with Cortical neurone [8]; 62.06% with Cortical neurone [9]; 66.65% in the data set with Cortical neurone [10]; “Dose-Dependent Effect” in the data set on Cortical neurone [6]; 95.48% in the data set with Cortical neurone [11]; “Toxic” with Cortical neurone [4].
Regarding `Clc1ccc([C@@H]2CC[C@@H](NC3CCCCC3)c3ccccc32)cc1Cl` (relative stereo), the Activity is 97.01% in the data set on Cortical neurone [8]; 61.62% in the data set with Cortical neurone [9]; 69.46% with Cortical neurone [10]; “Dose-Dependent Effect” with Cortical neurone [6]; 102.77% with Cortical neurone [11]; “Toxic” in the data set with Cortical neurone [4].
With `Cc1cccc(CN[C@@H]2CC[C@@H](c3ccc(Cl)c(Cl)c3)c3ccccc32)c1` (relative stereo), the Activity was 96.85% in the data set with Cortical neurone [8]; 65.53% with Cortical neurone [9]; 81.18% in the data set with Cortical neurone [10]; “Dose-Dependent Effect” with Cortical neurone [6]; 102.54% in the data set with Cortical neurone [11]; “Toxic” in the data set with Cortical neurone [4].
Turning to `CC(=O)N[C@@H]1CC[C@@H](c2ccc(Cl)c(Cl)c2)c2ccccc21` (relative stereo), the Activity in the data set with Cortical neurone [8] is 102.6%; in the data set on Cortical neurone [9], 66.22%; with Cortical neurone [10], 77.31%; in the data set on Cortical neurone [6], “Dose-Dependent Effect”; in the data set on Cortical neurone [11], 101.23%; with Cortical neurone [4], “Toxic”.
Consider `CC1=NN(c2ccccc2)C(=O)C1` [EDARAVONE], for which the Activity in the data set with Cortical neurone [8] came to 98.61%; in the data set on Cortical neurone [9] it was 64.39%; in the data set on Cortical neurone [10] it was 64.15%; with Cortical neurone [11], 96.6%. Moreover, the viability at 2 µM with SH-SY5Y [1] worked out at 71.3%.
`NCCc1c[nH]c2ccc(O)cc12` [SEROTONIN]: in the data set with Cortical neurone [12], the Activity entry is on record as “Non-Toxic”. Further, the outcome in the data set with Cortical neurone [13] was inactive.
Consider `CN[C@H]1CC[C@@H](c2ccc(Cl)c(Cl)c2)c2ccccc21` [SERTRALINE], for which the Activity is reported as 99.08% in the data set on Cortical neurone [8]; 67.21% with Cortical neurone [9] (24 h, 1 µM); 58.85% with Cortical neurone [10] (24 h, 10 µM); “Toxic” in the data set on Cortical neurone [14]; 94.25% in the data set on Cortical neurone [11]; “Non-Toxic” in the data set with Cortical neurone [4]. The Activity with Cortical neurone [15] is listed as 65.9%; in the data set with Cortical neurone [16], “Non-Toxic”. In addition, in the data set with SH-SY5Y [1], the viability at 2 µM stood at 81.9%. Moreover, the viability at 20 µM in the data set with SH-SY5Y [2] was 30.5%.
